Source: PubChem BioAssay (NCI)
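Five concentrations, 48 hours, 96-well plates. TGI is the concentration that stops growth completely.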

Key:
Assay in all cases: inhibition of tumour cell growth, NCI panel, 48 h
[1] = test system: BT-549 breast
[2] = test system: OVCAR-5 ovarian
[3] = test system: EKVX NSCLC
[4] = test system: RXF 393 renal
[5] = test system: U251 CNS
[6] = test system: RPMI-8226 leukemia
[7] = test system: IGROV1 ovarian
[8] = test system: 786-0 renal
[9] = test system: SK-MEL-5 melanoma
[10] = test system: A498 renal
[11] = test system: HCT-15 colon
[12] = test system: SF-295 CNS
[13] = test system: COLO 205 colon
[14] = test system: MDA-MB-435
[15] = test system: OVCAR-8 ovarian
[16] = test system: SK-MEL-2 melanoma
[17] = test system: MCF7 breast
[18] = test system: UO-31 renal
[19] = test system: HCT-116 colon
[20] = test system: A549 NSCLC
[21] = test system: CCRF-CEM leukemia
[22] = test system: LOX IMVI melanoma
[23] = test system: HOP-62 NSCLC
[24] = test system: PC-3 prostate
[25] = test system: KM12 colon
[26] = test system: HOP-92 NSCLC
[27] = test system: SF-268 CNS
[28] = test system: OVCAR-3 ovarian
[29] = test system: SN12C renal
[30] = test system: MDA-N
[31] = test system: NCI-H23 lung
[32] = test system: MALME-3M melanoma
[33] = test system: NCI-H460 lung
[34] = test system: TK-10 renal
[35] = test system: SR leukemia
[36] = test system: K-562 leukemia
[37] = test system: NCI/ADR-RES ovarian
[38] = test system: CAKI-1 renal
[39] = test system: UACC-257 melanoma
[40] = test system: OVCAR-4 ovarian
[41] = test system: SK-OV-3 ovarian
[42] = test system: SNB-19 CNS
[43] = test system: SW-620 colon
[44] = test system: MOLT-4 leukemia
[45] = test system: SNB-75 CNS
[46] = test system: HT29 colon
[47] = test system: NCI-H226 lung
[48] = test system: SK-MEL-28 melanoma
[49] = test system: ACHN renal
[50] = test system: HCC-2998 colon
[51] = test system: MDA-MB-231 breast
[52] = test system: NCI-H522 lung
[53] = test system: M14 melanoma
[54] = test system: DU-145 prostate
[55] = test system: T-47D breast
[56] = test system: UACC-62 melanoma
[57] = test system: HS 578T breast
[58] = test system: SF-539 CNS
[59] = test system: HL-60(TB) leukemia

C1=C2SSC3=CC=C(SSc4ccc(s4)SSC4=CC=C(SSC(=C1)S2)S4)S3 gave a TGI [1] of over 100 µM, a TGI [2] of over 100 µM and a TGI [3] of over 100 µM. The TGI [4] was over 100 µM, the TGI [5] was over 100 µM and the TGI [6] was over 100 µM. For the same compound, the TGI [7] was over 100 µM, the TGI [8] was over 100 µM and the TGI [9] was over 100 µM. It also gave a TGI [10] of over 100 µM, a TGI [11] of over 100 µM and a TGI [12] of over 100 µM. The TGI [13] was over 100 µM, the TGI [14] was over 100 µM and the TGI [15] was over 100 µM. The TGI [16] was over 100 µM, the TGI [17] was over 100 µM and the TGI [18] was over 100 µM. The TGI [19] was over 100 µM, the TGI [20] was over 100 µM and the TGI [21] was over 100 µM. For the same compound, the TGI [22] was over 100 µM, the TGI [23] was over 100 µM and the TGI [24] was over 100 µM. It also gave a TGI [25] of over 100 µM, a TGI [26] of over 100 µM and a TGI [27] of over 100 µM. It also gave a TGI [28] of over 100 µM, a TGI [29] of over 100 µM and a TGI [30] of over 100 µM. The TGI [31] was over 100 µM, the TGI [32] was over 100 µM and the TGI [33] was over 100 µM. It also gave a TGI [34] of over 100 µM, a TGI [35] of over 100 µM and a TGI [36] of over 100 µM. It also gave a TGI [37] of over 100 µM, a TGI [38] of over 100 µM and a TGI [39] of over 100 µM. It also gave a TGI [40] of over 100 µM, a TGI [41] of over 100 µM and a TGI [42] of over 100 µM. It also gave a TGI [43] of over 100 µM, a TGI [44] of over 100 µM and a TGI [45] of over 100 µM. It also gave a TGI [46] of over 100 µM, a TGI [47] of over 100 µM and a TGI [48] of over 100 µM. It also gave a TGI [49] of over 100 µM, a TGI [50] of over 100 µM and a TGI [51] of over 100 µM. The TGI [52] was over 100 µM, the TGI [53] was over 100 µM and the TGI [54] was over 100 µM. For the same compound, the TGI [55] was over 100 µM.
With Cc1oc2ccccc2c(=O)c1Cn1nnc2ccccc21 the TGI [2] was over 100 µM, the TGI [3] was over 100 µM and the TGI [5] was over 100 µM. It also gave a TGI [56] of over 100 µM, a TGI [6] of over 100 µM and a TGI [8] of over 100 µM. For the same compound, the TGI [9] was 48.5 µM, the TGI [10] was over 100 µM and the TGI [11] was over 100 µM. For the same compound, the TGI [12] was over 100 µM, the TGI [13] was over 100 µM and the TGI [14] was over 100 µM. The TGI [15] was over 100 µM, the TGI [16] was over 100 µM and the TGI [17] was 49.2 µM. The TGI [18] was over 100 µM, the TGI [19] was over 100 µM and the TGI [20] was over 100 µM. For the same compound, the TGI [21] was over 100 µM, the TGI [22] was over 100 µM and the TGI [23] was over 100 µM. The TGI [24] was over 100 µM, the TGI [25] was over 100 µM and the TGI [26] was 87.4 µM. The TGI [57] was over 100 µM, the TGI [27] was over 100 µM and the TGI [28] was 79.7 µM. For the same compound, the TGI [29] was over 100 µM, the TGI [30] was over 100 µM and the TGI [31] was over 100 µM. For the same compound, the TGI [32] was over 100 µM, the TGI [33] was over 100 µM and the TGI [34] was over 100 µM. For the same compound, the TGI [35] was over 100 µM, the TGI [36] was over 100 µM and the TGI [37] was over 100 µM. The TGI [58] was over 100 µM, the TGI [39] was 66.9 µM and the TGI [40] was over 100 µM. It also gave a TGI [41] of over 100 µM, a TGI [42] of over 100 µM and a TGI [43] of over 100 µM. For the same compound, the TGI [44] was over 100 µM, the TGI [45] was over 100 µM and the TGI [46] was over 100 µM. The TGI [59] was over 100 µM, the TGI [47] was over 100 µM and the TGI [48] was over 100 µM. The TGI [49] was over 100 µM, the TGI [50] was over 100 µM and the TGI [51] was over 100 µM. It also gave a TGI [53] of over 100 µM, a TGI [54] of over 100 µM and a TGI [55] of 44.2 µM.
